Experimental findings from US20220259254A1, “TRANS-CYCLOOCTENE BIOORTHOGONAL AGENTS AND USES IN CANCER AND IMMUNOTHERAPY” (Tambo, Inc., priority 2019, published 2022) are described below.

The structures appear in SMILES notation. “Also recorded” adds a separate entry of the source.

For experiment [1], the system named is MC38 tumor. Nature of the experiment: MC38 dual tumor model (injected and non-injected tumor), tumor growth inhibition and survival.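 For all read-outs here: male C57BL/6 mice carrying two subcutaneous MC38 flank tumors, with treatment given peritumorally beside the larger tumor only and both tumors sized by caliper three times per week.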 The following applies: for response of non-injected tumors: non-injected tumor (FIG. 6C); for antitumor activity on non-injected tumor compared with G4: P<0.001; for 1-T/C (%) / T/C (%): vs G4 saline; for TV, tumor volume at Day 7: Day 7 = treatment start, all groups peritumoral BIOMATERIAL 1; for survival, statistical difference from Saline: log-rank (Mantel-Cox) test; for tumor growth curves, statistical difference from Saline: unpaired t test with Welch's correction for each day, groups 4, 5, 8.
Method: For groups 4-10 (dual tumor model), Immunocompetent male C57BL/6 mice were inoculated SC in the right flank with 5×10^5 MC38 tumor cells (large injected tumor) and in the left flank with 1×10^5 MC38 tumor cells (small non-injected tumor).
Prior to injection, the MC38 cells were suspended in 0.1 mL DMEM media mixed with 50% Matrigel for tumor development. When the average tumor volume of the large tumor reached approximately 100 mm^3, animals were randomly grouped according to body weight and tumor volume into 10 treatment groups with 5-10 mice per group. All groups received peritumoral biomaterial injections (100 μL/mouse) near the large tumor (hereafter, the injected tumor). One hour later, groups 1, 4 and 10 were IV administered saline control (QD×5 days); groups 2, 8 and 9 were IV administered PRODRUG 1 prodrug (28.6 mg/kg Dox Eq QD×5 days; cumulative dose of 143 mg/kg Dox Eq) and group 5 was IV administered Dox HCl control (MTD; 8.1 mg/kg Q4D×3 doses; cumulative dose of 24.3 mg/kg). Tumor volumes for both tumors were measured three times weekly in two dimensions using a caliper, and the volume expressed in mm^3. 8 groups were used to assess the tumor growth inhibition, while groups 9 and 10 (PRODRUG 1, saline n=10/group) were used to determine the immune cell infiltration using flow cytometry. Groups 3, 6 and 7 (n=10) were used to test Dox+ TLR9 agonist (SL-01) and PRODRUG 1+ TLR9 agonist. The TLR9 agonist was given as an intratumoral injection in the primary tumors alone after the last PRODRUG 1 or Dox dose at 25 μg per mouse.
Eighty-five animals were enrolled into the efficacy study. When tumor volume reached an average volume of approximately 100 mm^3, animals were randomized as below using block randomization by Excel based upon their tumor size. […] 5×10^5 MC-38 cells suspended in 100 μL PBS mixed with 50% matrix gel were inoculated subcutaneously into the right flank. For Groups 4 through 10, 1×10^5MC-38 cells suspended in 100 μL PBS mixed with 50% matrix gel were inoculated subcutaneously into the left flank.
Tumor volume was measured thrice weekly in two dimensions using a caliper, and the volume was expressed in mm^3 using the formula: V=0.5 a×b^2, where a and b are the long and short diameters of the tumor, respectively. The tumor volume was then used for calculations of both T-C and T/C values. T-C was calculated with T as the median time (in days) required for the treatment group tumors to reach a predetermined size, and C as the median time (in days) for the control group tumors to reach the same size.

Experiment [2] has as its system MC38 tumor. Put plainly: MC38 subcutaneous syngeneic single tumor model, tumor growth inhibition. The format is in vivo, C57BL/6 mice.
Experiment [3] concerns tumor-infiltrating lymphocytes (TILs). Put plainly: flow cytometry of tumor-infiltrating immune cells in dual MC38 tumors. As to conditions: for % CD45+CD3+ cells versus saline: 2 weeks after treatment completion. The format is in vivo, C57BL/6 mice. Here is the method: In the same study, 2 groups (n=10) of mice with dual MC38 tumors were used for tumor immune cell profiling and were treated with either BIOMATERIAL 1/PRODRUG 1 TREATMENT or saline. Each group was further divided into 2 subgroups of 5 mice each. Tumor collection was performed on the first and second subgroups at 1 and 2 weeks, respectively. […] The cell percentage of each population of interest was identified (Table 6).
For tumor samples, tumor tissues were homogenized using the Miltenyi Tumor Dissociation kit. Single cell suspension from tumor samples were RBC lysed, centrifuged to pellet cells, washed with cold PBS and resuspend cell pellets in the staining buffer and store on ice. Cells were then ready for FACS antibody staining.
1. For each sample, added cells (<10×10^6 cells/tube) in the staining buffer, into an Eppendorf tube labeled with correct sample name. • Panel 1: Live-dead/CD45/CD3/CD4/CD8/CD25/PD-1 • Panel 2: Live-dead/CD45/CD3/CD4/CD25/Foxp3
2. For each tissue type (tumor), prepared two extra tubes (see below) and added cells (<10×10^6 cells/tube) in the staining buffer into these two tubes. • Tube: no-color • Tube: live-dead only*** • Tube: no-color (fix/perm) • Tube: live-dead only (fix/perm) • Note: These two tubes served as gating control for each tissue type. • *** The live-dead only tube was also used for live-dead compensation. Compensation for 8 fluorochrome-conjugated antibodies was prepared separately, using compensation beads from BD and following vendor's manual.
3. Prepared FcR blocking solution (100 μL per tube×tube numbers) by diluting FcR blocking antibody at 1/100 in staining buffer • Note: Since two Brilliant Violet dyes were used in the FACS panel, BD Horizon Brilliant Stain Buffer were added at 5 μL per 100 μL FcR blocking solution
4. Resuspended cell pellets in 100 μL FcR blocking solution and incubated at RT in dark for 3 min
5. For panel 1, added FACS antibodies to desired concentrations (2 μg/ml for each antibody). Incubated at 4° C. in dark for 30 min. For panel 2, added FACS antibodies (except foxp3) to desired concentrations (2 μg/ml for each antibody), incubated at 4° C. in dark for 30 min, then fixated/permeabilized the cells at 4° C. for 40-50 min, and added foxp3 antibody to desired concentrations (2 μg/ml) at 4° C. in dark for 40 min.
6. Added 1 ml staining buffer, centrifuged at 350 g for 4 min at 4° C. to wash and pellet cells
7. Resuspended cells in “Tube: no color” with 500 μL staining buffer (no live-dead added)
8. Resuspended cells in all other tubes with 500 μL staining buffer with 1 μg/ml live-dead
9. Cells were ready for FACS analysis and were subjected to analysis by the Attune Nxt Flow Cytomter (ThermoFisher)
For Group 9 and Group 10, 5 and 5 mice were sacrificed at 1 and 2 weeks respectively after dosing completion. Tumors were collected for FACS.
For orientation: In flow cytometry, cells or beads pass a laser one at a time.

In the next experiment the test system is MC38 tumor cells. Nature of the experiment: MC38 tumor re-challenge study. The format is in vivo, C57BL/6 mice. As to conditions: 5×10^5 MC38 cells SC at left flank on Day 70; versus naïve mice; listed as BIOMATERIAL 1/PRODRUG 1. How it is done: Aside from the dual-tumor groups, this study also investigated a tumor re-implantation in mice inoculated with only one MC38 tumor. On Day 38, all animals in group G2 (Table 1)(n=8) were treated with a second cycle of BIOMATERIAL 1/PRODRUG 1-100-μL intratumoral BIOMATERIAL 1 injection followed by 5 daily doses (1 dose per day) of PRODRUG 1—this time at 11.9 mg/kg/dose Dox Eq (59.3 mg/kg/cycle Dox Eq).
In addition, mice from group G3 (Table 1) (n=5), and mice from dual tumor groups G6, G7, and G8 (n=10) were rechallenged.

The test system of the next experiment is bacteria. Nature of the experiment: activity against bacteria measured by microcalorimetry. The class given is cell-based. As to conditions: tested up to 64 μg/ml (32 μM). The source says:
Example A7C can be synthesized using a protocol analogous to Example A7B.

[4] abbreviates: dual tumor mice, injected tumor.
Where [5] appears, read: dual tumor mice, non-injected tumor.
Where [6] appears, read: injected tumor, dual tumor mice, D21.
Where [7] appears, read: injected tumor, dual tumor mice.
Where [8] appears, read: non-injected tumor, dual tumor mice, D24.
Setting [9] is: non-injected tumor, dual tumor mice.
[10] abbreviates: injected tumor, single tumor mice, D21, vs G1 saline.

As to `COc1cccc2c1C(=O)c1c(O)c3c(c(O)c1C2=O)C[C@@](O)(C(=O)CO)C[C@@H]3O[C@H]1C[C@H](N)[C@H](O)[C@H](C)O1` [Dox, doxorubicin, reference compound], the “antitumor activity on injected tumor compared with control group G4” value in the experiment with MC38 tumor [1] (setting [4]) was “significant antitumor activity”. Also, in the experiment on MC38 tumor [1] (dual tumor mice), the “response of non-injected tumors” value was “progressive growth” and the “survival, statistical difference from Saline” value is reported as “not significantly different”. Further, in the experiment on MC38 tumor [1] (setting [5]), the “antitumor activity on non-injected tumor compared with G4” value is recorded as “significant antitumor activity”. Also, in the experiment on MC38 tumor [1] (setting [6]), the “1-T/C (%)” value came to 34% and the “T/C (%)” value turned out to be 66%. Besides, in the experiment on MC38 tumor [1] (setting [7]), the “TV, tumor volume at Day 7” value is recorded as 93 ± 8.5 mm^3 and the “TV, tumor volume at Day 21” value is 810 ± 196.4 mm^3. For the same molecule, in the experiment on MC38 tumor [1] (setting [8]), the “1-T/C (%)” value is on record as 66% and the “T/C (%)” value is reported as 34%. In the experiment with MC38 tumor [1] (setting [9]), the “TV, tumor volume at Day 12” value is listed as 67 ± 18.8 mm^3 and the “TV, tumor volume at Day 24” value amounted to 93 ± 19.2 mm^3. Moreover, the “tumor growth curves, statistical difference from Saline” value in the experiment with MC38 tumor [1] was “not significantly different”.
Take `COc1cccc2c1C(=O)c1c(O)c3c(c(O)c1C2=O)C[C@@](O)(C(=O)CO)C[C@@H]3O[C@H]1CC(NC(=O)O[C@@H]2/C=C/CC[C@](C)(C(=O)NCC(=O)O)CC2)[C@H](O)C(C)O1` (stereo partly shown) [PRODRUG 1]: the complete remission in the experiment with MC38 tumor [2] (MC38 model) is 10 % of mice treated. In the experiment on MC38 tumor [2] (setting [10]), the “1-T/C (%)” value amounted to 62% and the “T/C (%)” value is 38%. In addition, the “TV, tumor volume at Day 7” value in the experiment with MC38 tumor [2] (injected tumor, single tumor mice, Day 7 = treatment start, all groups peritumoral BIOMATERIAL 1) is 94 ± 6.3 mm^3. For the same molecule, in the experiment with MC38 tumor [2] (injected tumor, single tumor mice, Day 21, all groups peritumoral BIOMATERIAL 1), the “TV, tumor volume at Day 21” value is on record as 393 ± 100.5 mm^3. In addition, the “antitumor activity compared with control group G1” value with MC38 tumor [2] (single tumor mice, P<0.001) is reported as “significant antitumor activity”. Besides, the “immune cell profile versus saline group” value in experiment [3] (1 week after completion of treatment) was “no differences”. Moreover, the “total number of TILs” value in experiment [3] (injected and non-injected tumors, at 2 weeks, not after 1 week, listed as BIOMATERIAL 1/PRODRUG 1) is listed as “increased the total number of TILs”. The “PD-1 expression in CD8+ cells versus saline” value in experiment [3] (injected or non-injected tumors) is recorded as “no difference”. In addition, in experiment [3] (injected tumor, 2 weeks), the “percentage of CD4+ cells versus saline” value is “significantly higher” and the “percentage of CD8+ cells versus saline” value was “significantly higher”. Also, the “percentage of PD-1+CD4+ T cells versus saline” value in experiment [3] (injected tumors, 2 weeks) is given as “higher percentage”. The “% CD45+CD3+ cells versus saline” value in experiment [3] (injected tumors) was “increased”. Besides, the “percentage of FoxP3+ cells versus saline” value in experiment [3] (injected tumors, 2 weeks, no statistical significance) is listed as “lower”. Also, the “CD4+ cell percentage versus saline” value in experiment [3] (non-injected tumor, 2 weeks) is reported as “significantly higher”. In experiment [3] (non-injected tumors, 2 weeks), the “CD4+CD25+ FoxP3+ cells (Tregs)” value is given as “no CD4+CD25+ FoxP3+ cells observed” and the “difference in PD-1+CD4+ T cells versus saline” value was “not observed”. In addition, in experiment [3] (non-injected tumors), the “% CD45+CD3+ cells versus saline” value is “increased”. In addition, the “cell percentage of CD8+ cells versus saline” value in experiment [3] (non-injected tumors, 2 weeks, no statistical significance) was “appeared higher”. For the same molecule, the “tumor growth after re-challenge with MC38 cells” value in the experiment on MC38 tumor cells was “suppressed; also recorded: sustained anti-tumor response”. The “antitumor activity on injected tumor compared with control group G4” value with MC38 tumor [1] (setting [4]) was “significant antitumor activity”. Besides, the “antitumor response / tumor growth inhibition compared with conventional Dox treatment” value in the experiment on MC38 tumor [1] (dual tumor mice, injected tumor, p<0.05, listed as BIOMATERIAL 1/PRODRUG 1) is “significantly improved antitumor response; also recorded: improved tumor growth inhibition”. Moreover, in the experiment on MC38 tumor [1] (dual tumor mice), the “response of non-injected tumors” value is “sustained anti-tumor responses” and the “survival, statistical difference from Saline” value was “significantly different”. Further, in the experiment with MC38 tumor [1] (setting [5]), the “antitumor activity on non-injected tumor compared with G4” value is on record as “significant antitumor activity”. The “overall survival compared with conventional Dox treatment” value in the experiment with MC38 tumor [1] (dual tumor mice, p<0.001, listed as BIOMATERIAL 1/PRODRUG 1) is “significantly improved”. Also, in the experiment on MC38 tumor [1] (setting [6]), the “1-T/C (%)” value is given as 75% and the “T/C (%)” value is listed as 25%. Besides, in the experiment on MC38 tumor [1] (setting [7]), the “TV, tumor volume at Day 7” value stood at 93 ± 5.6 mm^3 and the “TV, tumor volume at Day 21” value amounted to 322 ± 45.9 mm^3. In the experiment with MC38 tumor [1] (setting [8]), the “1-T/C (%)” value stood at 70% and the “T/C (%)” value was found to be 30%. In the experiment with MC38 tumor [1] (setting [9]), the “TV, tumor volume at Day 12” value was 42 ± 3.8 mm^3 and the “TV, tumor volume at Day 24” value is 53 ± 5.2 mm^3. Moreover, in the experiment with MC38 tumor [1], the “tumor growth curves, statistical difference from Saline” value was “significantly different”.
Regarding `CC(C)CC(C(=O)N[C@H]1C(=O)N[C@@H](CC(N)=O)C(=O)N[C@H]2C(=O)N[C@H]3C(=O)N[C@H](C(=O)N[C@H](C(=O)O)c4cc(O)cc(O)c4-c4cc3ccc4O)[C@H](O)c3ccc(c(Cl)c3)Oc3cc2cc(c3O[C@@H]2O[C@H](CO)[C@@H](O)[C@H](O)[C@H]2O[C@H]2C[C@](C)(NC(=O)O[C@@H]3/C=C/CC[C@](C)(C(=O)NCC(=O)O)CC3)[C@H](O)[C@H](C)O2)Oc2ccc(cc2Cl)[C@H]1O)N(C)C(=O)O[C@@H]1/C=C/CC[C@](C)(C(=O)NCC(=O)O)CC1` (stereo partly shown) [Vanco-Bis-TCO-Glycine], the activity against bacteria entry with bacteria is listed as “no activity”.
